Values of other authors in patent US5484728A (priority 1994, dated 1996).

SMILES: CCOP(=S)(OCC)Oc1cc(C)nc(C(C)C)n1 [diazinon]
- half-life of diazinon in soil without enzyme present: 226 h
